Source: patent US5840714A, “Inclusion complexes of racemic ibuproxam and of optically active ibuproxam with cyclodextrin derivatives, pharmaceutical preparations containing said inclusion complexes and methods for using same” (priority 1993, dated 1998)

What was measured:
[1] = irrespective of application route; cited from earlier work
[2] = cited from earlier work
[3] = in vivo; cited from earlier work
[4] = cited from earlier work; remark: listed apart in the source
in vivo = conditions: po
Description: (§1) In the test mice of Han-NMRI strain of both sexes, weight 19 to 24 g, and female rats of Han-WISTAR strain, weight 220 to 250 g, were used. The active substance was suspended in arachis oil and applied perorally. The volume of the applied suspension was 0.2 ml/20 g body weight in mice and 0.2 ml/200 g body weight in rats. Before the test the animals were fasted for 24 hours and after application, water and food were available ad libitum.

mice of Han-NMRI strain = test: in vivo; conditions: for comparative toxicity (in words): peroral, mice and rats
Description: as §1

gastric mucous membrane = test: Effect on gastric mucous membrane (irritation); type: in vivo, rats
Description: […] After 4 hours its effect on irritation of gastric mucous membrane was measured in a way that the rate of bleeding in stomach and frequency of ulcers was determined.

[5] = tested on: oedema caused by carrageenin; test: Antiinflammatory action in vivo (carrageenin oedema); set-up: species or system rats
Description: Antiinflammatory action was measured in vivo by the inhibition of oedema caused by carrageenin.
Rats, which were fasted overnight, were given 100 mg/kg of the test substance 1 hour before the injection of 0.1 ml 1% carrageenin suspension.

[6] = tested on: convulsions caused by phenylbenzoquinone; test: Alleviation of pain (phenylbenzoquinone-induced convulsions); type: in vivo, female mice; conditions: Mus musculus, po, read-out: ED50 (50% pain protection); 95% confidence limit; peroral, 30 minutes before intraperitoneal phenylbenzoquinone
Description: The effect of alleviating pain was tested with the number of convulsions caused by phenylbenzoquinone. Female mice, weight 15 to 22 g, were fasted before the test for 24 hours and after the application water and food were ad libitum. 30 minutes after peroral introduction of the suspension of active substance in 10% gum arabic solution, individual mice were intraperitoneally administered 0.25 ml of 0.02% phenylbenzoquinone solution. Only the vehicle was applied to a control group of animals. The number of phenylbenzoquinone-induced convulsions was pursued 5 to 20 minutes after the application thereof.
ED50 calculated dosis of the active substance in mg per 1 kg of the
animal, which dosis caused a 50% pain protection

[7] = mouse, in vivo, 2000 mg/kg, % of deaths after 15 days, female mice, 2000 mg/kg peroral
[8] = mouse, in vivo, 2000 mg/kg, % of deaths after 15 days, male mice, 2000 mg/kg peroral
[9] = mouse, in vivo, 2000 mg/kg, % of deaths in 24 h, female mice, 2000 mg/kg peroral
[10] = mouse, in vivo, 2000 mg/kg, % of deaths in 24 h, male mice, 2000 mg/kg peroral

Question: Which “metabolic conversion into ibuprofen (in words)” value [1] does the source give for `CC(C)Cc1ccc(C(C)C(=O)NO)cc1` (racemic) [racemic ibuproxam, 2-(4-isobutylphenyl)-propiohydroxamic acid] here?
Answer: rapid and almost complete metabolic conversion into ibuprofen

Question: What about the “LD50 comparison at parenteral application” value [2] of the same molecule?
Answer: the same for both substances

Question: And the “analgetic, antipyretic and antiinflammatory action (in words)” value [3]?
Answer: same analgetic, antipyretic and antiinflammatory action of both substances

Question: And the “bioavailability in comparison with ibuprofen (in words)” value [3]?
Answer: better bioavailability of ibuproxam in comparison with ibuprofen

Question: What about the “toxicity for the mucous membrane of the alimentary tract (in words)” value [3] of the same molecule?
Answer: less toxic for the mucous membrane of the alimentary tract

Question: With `CC(C)Cc1ccc([C@@H](C)C(=O)O)cc1` [R-(-)-enantiomer] as the molecule, how does the “conversion to S-(+)-enantiomer in humans” value ([4]; humans) read?
Answer: only one third thereof, is converted to S-(+)-enantiomer

Question: With `CC(C)Cc1ccc([C@H](C)C(=O)O)cc1` [S-(+)-ibuprofen] as the molecule, how does the mortality at 360 h (in vivo; mouse, in vivo, 1000 mg/kg, % of deaths after 15 days, female mice, 1000 mg/kg peroral) read?
Answer: 10%

Question: And the mortality at 24 h (in vivo; mouse, in vivo, 1000 mg/kg, % of deaths in 24 h, female mice, 1000 mg/kg peroral)?
Answer: 10%

Question: And the mortality at 360 h (in vivo; [7])?
Answer: 10%

Question: What about the mortality at 360 h (in vivo; [8]) of the same molecule?
Answer: 30%

Question: And the mortality at 24 h (in vivo; [9])?
Answer: 10%

Question: And the mortality at 24 h (in vivo; [10])?
Answer: 0%

Question: And the mortality at 48 h (in vivo; mouse, in vivo, 2000 mg/kg, animals died in 48 hours, male mice, 2000 mg/kg peroral)?
Answer: 30%

Question: And the LD50 (in vivo; rat)?
Answer: < 1000 mg/kg

Question: What about the mortality at 24 h (in vivo; rat, 1000 mg/kg) of the same molecule?
Answer: 0%

Question: What about the mortality at 144 h (in vivo; rat, 1000 mg/kg) of the same molecule?
Answer: 83.3%

Question: And the mortality at 360 h (in vivo; rat, 1000 mg/kg)?
Answer: 83.3%

Question: What about the “comparative toxicity (in words)” value (mice of Han-NMRI strain) of the same molecule?
Answer: acute toxicity of S-(+)-ibuprofen in all test animals is greater than acute toxicity of S-(+)-ibuproxam

Question: And the “irritation of gastric mucous membrane” value (gastric mucous membrane; rat, in vivo, 30 mg/kg)?
Answer: 12

Question: And the “pharmacological activity (in words)” value ([4]; in vivo)?
Answer: pharmacologically active

Question: For `CC(C)Cc1ccc([C@H](C)C(=O)NO)cc1` [S-(+)-ibuproxam, S-(+)-2-(4-isobutylphenyl)-propiohydroxamic acid], which mortality at 360 h (in vivo; [7]) is on record?
Answer: 0%

Question: And the mortality at 360 h (in vivo; [8])?
Answer: 0%

Question: And the mortality at 24 h (in vivo; [9])?
Answer: 0%

Question: And the mortality at 24 h (in vivo; [10])?
Answer: 0%

Question: What about the mortality at 24 h (in vivo; rat, 1000 mg/kg) of the same molecule?
Answer: 0%

Question: What about the mortality at 360 h (in vivo; rat, 1000 mg/kg) of the same molecule?
Answer: 50%

Question: And the mortality at 360 h (in vivo; rat, 2000 mg/kg)?
Answer: 50%

Question: And the “animals died (in words)” value (mice of Han-NMRI strain; female mice, 1000 mg/kg or 2000 mg/kg peroral, 15 days)?
Answer: no animal died

Question: And the “animals died (in words)” value (mice of Han-NMRI strain; male mice, 2000 mg/kg peroral)?
Answer: no animal died

Question: And the “animals died in 15 days (in words)” value (mice of Han-NMRI strain; mice of both sexes, 2000 mg/kg peroral)?
Answer: no animal died in 15 days

Question: And the “comparative toxicity (in words)” value (mice of Han-NMRI strain)?
Answer: less toxic than S-(+)-ibuprofen

Question: What about the antiinflammatory action ([5]; 100 mg/kg peroral, 1 hour before carrageenin, oedema inhibition 3 hours after carrageenin) of the same molecule?
Answer: 37

Question: And the “comparative antiinflammatory action (in words)” value ([5]; rat, in vivo)?
Answer: greater antiinflammatory action than free racemic ibuproxam

Question: And the “irritation of gastric mucous membrane” value (gastric mucous membrane; dose 30 mg/kg peroral, rate of bleeding and frequency of ulcers after 4 hours)?
Answer: 0

Question: What about the “irritating effect on gastric mucous membrane (in words)” value (gastric mucous membrane; rat, in vivo) of the same molecule?
Answer: did not exhibit an irritating effect on gastric mucous membrane

Question: And the ED50 [6]?
Answer: 73 mg/kg

Question: Which results are given for `CC(C)Cc1ccc(C(C)C(=O)O)cc1` (centres unmarked) [ibuprofen, 2-(4-isobutylphenyl)-propionic acid]?
Answer: LD50 comparison at parenteral application [2]: the same for both substances; analgetic, antipyretic and antiinflammatory action (in words) [3]: same analgetic, antipyretic and antiinflammatory action of both substances
